Experimental data published in PMC5137954, “Importance of measuring testosterone in enzyme-inhibited plasma for oral testosterone undecanoate androgen replacement therapy clinical trials” (Future Science OA, 2015).

Tests used:
[1] = Stability of T and DHT in NaF/Na2EDTA plasma in presence of TU, DHTU and glucuronides (method validation); settings: for % Bias of dihydrotestosterone concentration / % Bias of testosterone concentration: DHTU and glucuronides; for increase of the T and DHT concentrations (degradation of TU and DHTU into T or DHT): low and high QCs, room temperature or 4°C, long-term storage at -20 and -80°C
Protocol: The methods were validated as per the most recent US FDA and EMA validation guidelines. During the method validation, the accuracy, precision, within-run, between-run, selectivity, matrix effect as well as the stability (stability in whole blood at 4°C, short-term stability in matrix at room temperature, freeze–thaw stability at -20°C/-80°C, long-term stability at -20°C/-80°C) were evaluated.
The impact of the glucuronide was also assessed in whole blood during sample collection and handling.
Moreover, the possible degradation of TU and DHTU into T or DHT was assessed when low and high T and DHT level quality controls were submitted to freeze–thaw cycles, incubation at room temperature or 4°C and long-term storage at -20 and -80°C.
Low QC samples were fortified with testosterone undecanoate (3000 ng/dL), dihydrotestosterone undecanoate (1500 ng/dL), testosterone glucuronide (800 ng/dL) and dihydrotestosterone undecanoate (400 ng/dL). High QC samples were fortified with testosterone undecanoate (219000 ng/dL), dihydrotestosterone undecanoate (235100 ng/dL), testosterone glucuronide (93600 ng/dL) and dihydrotestosterone undecanoate (21900 ng/dL). The%Bias must be within 15%.

[2] = Clinical study of oral TU: T and DHT in serum versus NaF/Na2 EDTA plasma; settings: day 84, oral TU twice daily, fed, 15 hypogonadal men; serum vs NaF-Na2 EDTA plasma
Protocol: A clinical study was performed at the inVentiv Health Clinical facilities where fifteen asymptomatic hypogonadal male subjects aged 18 to 75 years were administered an oral dose of TU twice daily for 84 consecutive days under fed conditions. Each volunteer was informed on the risk of procedure and risk of the clinical study by signing the informed consent. On day 84, serum and plasma samples were collected predose and at 1.5, 3, 4, 5, 6, 8, 10, 12, 13.5, 15, 16, 17, 18, 20, 22 and 24 h after the morning dose. One of the main objectives of this study part was to compare the levels of T and DHT measured with a validated method in NaF/Na2 EDTA plasma to the levels measured in serum.
Pharmacokinetic (PK) parameters were assessed using samples collected on day 84: Ln-transformed area under the concentration–time curve (AUC0–24) and the maximum concentration of analyte (Cmax0–24) obtained with the study samples collected from 0–24 h after the morning dose of TU on last study day 84 were used to compare the levels of testosterone, DHT, TU and DHTU measured in serum in comparison to the levels measured in plasma.
Data reported in Table 5 were obtained from a cohort of 15 subjects undergoing a clinical study of a novel formulation of TU. Table 5 presents summaries of the comparison of the PK results for T and DHT obtained using serum and plasma samples for each analyte. Figure 2 presents the mean analyte concentrations obtained from the serum and plasma samples.

[3] = in serum or plasma, sometimes; cited from earlier work
[4] = conclusion of a published method validation; cited from earlier work
[5] = TU to T conversion depending on the TU spiking solvent used; assay type: in vitro ADME, human
Protocol: We decided to investigate further to better understand the discordance between the conclusions. Literature descriptions of sample preparations include a stock solution prepared in ethanol and diluted in phosphate buffer saline (PBS). In the experiments carried out in the study reported here, it was observed that the stock and spiking solution preparation is very important. A stock solution of TU was prepared in ethanol and diluted with PBS prior to being added to whole blood. Results from this procedure were compared with those typically used in our experiments with TU stock prepared and diluted using methanol, prior to being added to whole blood. It was observed that a precipitate occurred in the PBS solution after a freeze–thaw cycle.
To investigate this effect further, freshly collected whole blood was collected in conventional serum tubes and in NaF/K2C2O4 tubes. Each whole blood tube was fortified with TU at a final concentration of 60,000 ng/dl with solution prepared either in methanol or in ethanol/PBS; each experiment was performed in triplicate. Serum samples were incubated at room temperature for 30 and 60 min, and plasma samples were incubated for 10, 30 and 60 min at 4°C. T and TU were analyzed in the plasma and serum samples obtained.

C[C@]12CCC(=O)C[C@@H]1CC[C@@H]1[C@@H]2CC[C@]2(C)[C@@H](O)CC[C@@H]12 [Dihydrotestosterone, dihydrotestosterone]
% Bias of dihydrotestosterone concentration ([1]; High QC 430.0 ng/dL fortified with TU, Freeze/Thaw at -20°C (4 Cycles)): -10.2%
% Bias of dihydrotestosterone concentration ([1]; High QC 430.0 ng/dL fortified with TU, Freeze/Thaw at -80°C (4 Cycles)): -10.7%
% Bias of dihydrotestosterone concentration ([1]; High QC 430.0 ng/dL fortified with TU, Long-Term at -20°C for 14 days): -4.4%
% Bias of dihydrotestosterone concentration ([1]; High QC 430.0 ng/dL fortified with TU, Long-Term at -80°C for 14 days): -5.4%
% Bias of dihydrotestosterone concentration ([1]; High QC 430.0 ng/dL fortified with TU, Post-Preparative at RT for 69 hrs): 8.6%
% Bias of dihydrotestosterone concentration ([1]; High QC 430.0 ng/dL fortified with TU, Short-Term at 4°C for 21 hrs): -0.5%
% Bias of dihydrotestosterone concentration ([1]; High QC 430.0 ng/dL fortified with TU, Short-Term at RT for 23 hrs): 2.5%
% Bias of dihydrotestosterone concentration ([1]; High QC 430.0 ng/dL fortified with TU, Whole Blood on Ice for 110 min): 0.3%
% Bias of dihydrotestosterone concentration ([1]; Low QC 19.2 ng/dL fortified with TU, Freeze/Thaw at -20°C (4 Cycles)): -14.6%
% Bias of dihydrotestosterone concentration ([1]; Low QC 19.2 ng/dL fortified with TU, Freeze/Thaw at -80°C (4 Cycles)): -14.9%
% Bias of dihydrotestosterone concentration ([1]; Low QC 19.2 ng/dL fortified with TU, Long-Term at -20°C for 14 days): -8.7%
% Bias of dihydrotestosterone concentration ([1]; Low QC 19.2 ng/dL fortified with TU, Long-Term at -80°C for 14 days): -8.1%
% Bias of dihydrotestosterone concentration ([1]; Low QC 19.2 ng/dL fortified with TU, Post-Preparative at RT for 69 hrs): 5.1%
% Bias of dihydrotestosterone concentration ([1]; Low QC 19.2 ng/dL fortified with TU, Short-Term at 4°C for 21 hrs): -9.1%
% Bias of dihydrotestosterone concentration ([1]; Low QC 19.2 ng/dL fortified with TU, Short-Term at RT for 23 hrs): -6.1%
% Bias of dihydrotestosterone concentration ([1]; Low QC 19.2 ng/dL fortified with TU, Whole Blood on Ice for 110 min): -6.1%
Ratio (serum/plasma) of AUC0–24 [2]: 122.40%
Ratio (serum/plasma) of Cmax0–24 [2]: 130.61%

CCCCCCCCCCC(=O)O[C@H]1CCC2C3CCC4CC(=O)CC[C@]4(C)C3CC[C@@]21C (stereo partly drawn) [DHTU, 5-alpha-dihydrotestosterone undecanoate]
increase of the T and DHT concentrations (degradation of TU and DHTU into T or DHT) ([1]; freeze–thaw cycles): No increase

C[C@]12CC[C@H]3[C@@H](CCC4=CC(=O)CC[C@@]43C)[C@@H]1CC[C@@H]2O [Testosterone, testosterone]
% Bias of testosterone concentration ([1]; High QC 2300.0 ng/dL fortified with TU, Freeze/Thaw at -20°C (4 Cycles)): -3.3%
% Bias of testosterone concentration ([1]; High QC 2300.0 ng/dL fortified with TU, Freeze/Thaw at -80°C (4 Cycles)): -3.4%
% Bias of testosterone concentration ([1]; High QC 2300.0 ng/dL fortified with TU, Long-Term at -20°C for 14 days): -1.8%
% Bias of testosterone concentration ([1]; High QC 2300.0 ng/dL fortified with TU, Long-Term at -80°C for 14 days): -3.1%
% Bias of testosterone concentration ([1]; High QC 2300.0 ng/dL fortified with TU, Post-Preparative at RT for 69 hrs): 10.1%
% Bias of testosterone concentration ([1]; High QC 2300.0 ng/dL fortified with TU, Short-Term at 4°C for 21 hrs): 0.6%
% Bias of testosterone concentration ([1]; High QC 2300.0 ng/dL fortified with TU, Short-Term at RmT for 23 hrs): 0.2%
% Bias of testosterone concentration ([1]; High QC 2300.0 ng/dL fortified with TU, Whole Blood on ice for 110 min): 8.3%
% Bias of testosterone concentration ([1]; Low QC 40.0 ng/dL fortified with TU, Freeze/Thaw at -20°C (4 Cycles)): -5.8%
% Bias of testosterone concentration ([1]; Low QC 40.0 ng/dL fortified with TU, Freeze/Thaw at -80°C (4 Cycles)): -5.8%
% Bias of testosterone concentration ([1]; Low QC 40.0 ng/dL fortified with TU, Long-Term at -20°C for 14 days): -1.9%
% Bias of testosterone concentration ([1]; Low QC 40.0 ng/dL fortified with TU, Long-Term at -80°C for 14 days): 2.1%
% Bias of testosterone concentration ([1]; Low QC 40.0 ng/dL fortified with TU, Post-Preparative at RT for 69 hrs): 14.0%
% Bias of testosterone concentration ([1]; Low QC 40.0 ng/dL fortified with TU, Short-Term at 4°C for 21 hrs): -4.2%
% Bias of testosterone concentration ([1]; Low QC 40.0 ng/dL fortified with TU, Short-Term at RmT for 23 hrs): -2.5%
% Bias of testosterone concentration ([1]; Low QC 40.0 ng/dL fortified with TU, Whole Blood on ice for 110 min): -11.1%
Ratio (serum/plasma) of AUC0–24 [2]: 130.02%
Ratio (serum/plasma) of Cmax0–24 [2]: 134.01%

CCCCCCCCCCC(=O)O[C@H]1CCC2C3CCC4=CC(=O)CC[C@]4(C)C3CC[C@@]21C (stereo partly drawn) [TU, Testosterone undecanoate]
increase of the T and DHT concentrations (degradation of TU and DHTU into T or DHT) ([1]; freeze–thaw cycles): No increase
TU concentration higher than the testosterone concentration [3]: 20- to 30 times
stability of TU in blood [4]: stable
Mean TU Concentration ([5]; whole blood spiked with TU in PBS, 60,000 ng/dl, 30 min serum RT): 3991.0 ng/dL
Mean TU Concentration ([5]; whole blood spiked with TU in PBS, 60,000 ng/dl, 60 min serum RT): 5892.3 ng/dL
Mean TU Concentration ([5]; whole blood spiked with TU in PBS, 60,000 ng/dl, NaF/K2C2O4 plasma 10 min 4°C): 74408.7 ng/dL
Mean TU Concentration ([5]; whole blood spiked with TU in PBS, 60,000 ng/dl, NaF/K2C2O4 plasma 30 min 4°C): 54088.0 ng/dL
Mean TU Concentration ([5]; whole blood spiked with TU in PBS, 60,000 ng/dl, NaF/K2C2O4 plasma 60 min 4°C): 26618.7 ng/dL
Mean TU Concentration ([5]; whole blood spiked with TU in methanol, 60,000 ng/dl, 30 min serum RT): 97110.3 ng/dL
Mean TU Concentration ([5]; whole blood spiked with TU in methanol, 60,000 ng/dl, 60 min serum RT): 96132.3 ng/dL
Mean TU Concentration ([5]; whole blood spiked with TU in methanol, 60,000 ng/dl, NaF/K2C2O4 plasma 10 min 4°C): 97235.0 ng/dL
Mean TU Concentration ([5]; whole blood spiked with TU in methanol, 60,000 ng/dl, NaF/K2C2O4 plasma 30 min 4°C): 95628.0 ng/dL
Mean TU Concentration ([5]; whole blood spiked with TU in methanol, 60,000 ng/dl, NaF/K2C2O4 plasma 60 min 4°C): 93816.3 ng/dL

C[C@]12CC[C@H]3[C@@H](CCC4=CC(=O)CC[C@@]43C)[C@@H]1CC[C@@H]2O[C@@H]1O[C@H](C(=O)O)[C@@H](O)[C@H](O)[C@H]1O [Testosterone glucuronide, testosterone glucuronide]
impact on the quantitation of T and DHT ([1]; low and high QCs fortified with testosterone glucuronide, freeze–thaw cycles, room temperature, 4°C, long-term storage at -20 or -80°C): no impact
